The values that follow come from US8901158B2, “Treatment of bipolar disorder” (Isis Innovation Ltd., priority 2011, dated 2014).

Each structure is given as a SMILES string.

One data set addresses T1, bovine IMPase (Bos taurus, UniProt P20456).
T1 sequence (P20456 1-277): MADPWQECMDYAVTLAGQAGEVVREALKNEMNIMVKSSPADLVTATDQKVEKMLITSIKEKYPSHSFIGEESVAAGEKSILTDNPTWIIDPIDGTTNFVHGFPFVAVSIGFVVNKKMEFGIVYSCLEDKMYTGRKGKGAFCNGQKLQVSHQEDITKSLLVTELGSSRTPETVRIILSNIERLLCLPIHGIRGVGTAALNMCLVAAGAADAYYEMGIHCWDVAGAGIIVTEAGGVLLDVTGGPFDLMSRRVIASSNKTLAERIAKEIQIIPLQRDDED
Conditions: reported value; cited from earlier work.

In data set [1] the target is T2, human inositol monophosphatase (Homo sapiens, UniProt P29218).
T2 construct: made in house; host or cells: E. coli BL21 (DE3) pLysS
T2 sequence (P29218 1-277): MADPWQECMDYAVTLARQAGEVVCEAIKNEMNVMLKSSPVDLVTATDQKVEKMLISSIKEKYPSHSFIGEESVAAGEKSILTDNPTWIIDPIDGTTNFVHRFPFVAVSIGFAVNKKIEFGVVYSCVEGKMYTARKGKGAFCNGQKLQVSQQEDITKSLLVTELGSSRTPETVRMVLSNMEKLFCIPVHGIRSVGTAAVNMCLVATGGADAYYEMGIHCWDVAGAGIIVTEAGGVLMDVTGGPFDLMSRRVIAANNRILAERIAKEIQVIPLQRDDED
Description: in vitro IMPase inhibition, malachite green phosphate assay. It counts as biochemical. The following applies: for IC50: human IMPase, constant amount of inositol monophosphate. From the text: Human inositol monophosphatase cDNA was ordered from Geneservice, Source Bioscience, Cambridge, UK. The cDNA was inserted into plasmid pRSET5a, which was then transformed into JM109 competent cells. These cells were allowed to multiply and the plasmid was then extracted from the cells. The plasmid was then transformed into expression bacteria, E.coli strain BL21 (DE3) pLysS. […] The next day the cells were lysed and the soluble fraction, which contained the enzyme, was collected. Purification was carried out in 3 stages. The soluble fraction was heated at 68° C. for 1 hour and then centrifuged. The supernatant was taken and run through a Q-sepharose column (Pharmacia). Different fractions were collected and assessed for activity. The active fractions were then passed through a Tricorn MonoQ 5/50 GL column (GE Healthcare, UK) for further purification.
Each enzymatic reaction using human inositol monophosphatase contained 0.00013 mg of enzyme (0.0673 mg/mL). The substrate inositol monophosphate (Alexis Chemicals) was diluted with the appropriate buffer to make up a concentration of 50 mM stock. The stock was then diluted with buffer to yield the following concentrations of substrate: 0 mM, 0.1 mM, 0.5 mM, 1.0 mM, 1.5 mM, 2.5 mM, 5 mM, 10 mM, 20 mM, 25 mM and 30 mM. From this 2 μL of substrate was added to each reaction well giving a tenfold dilution of substrate to 0 mM, 0.01 mM, 0.05 mM, 0.1 mM, 0.15 mM, 0.25 mM, 0.5 mM, 1 mM, 2 mM, 2.5 mM and 3 mM. The reaction buffer contained 1 mM EGTA, 150 mM KCl, 3 mM MgCl2, 0.5 ng/mL BSA, 50 mM Tri, HCl, pH 7.4 and 0.01% Triton X100.
A malachite green assay was used for the quantitative determination of free inorganic phosphate present at the end of the IMPase reaction. This involved dissolving 4.2% w/v ammonium molybdate in 4M hydrochloric acid. The Malachite Green itself was made up to 0.045% w/v concentration. From these stocks, a 3:1 malachite green:ammonium molybdate mixture was prepared and vortexed for thirty minutes. The malachite green forms a complex of ammonium molybdate:malachite green:inorganic phosphate in the presence of free inorganic phosphate. To each reaction plate, duplicate wells of a range of known phosphate concentrations were prepared within the concentration range of 0-300 μM with each well containing 20 μL of solution. The phosphate standards were made from serial dilutions of 1M potassium dihydrogen phosphate using double distilled H2O. To each well was added 180 μL of malachite green:ammonium molybdate mix. The colour produced by the reaction between the inorganic phosphate and malachite green:ammonium molybdate was proportional to the amount of phosphate present. The colour was allowed to develop for 15 min and then the plate was read on a TECAN Sunrise microplate reader at 595 nm wavelength.
For the reactions whose results are shown in FIG. 2, lithium (Sigma) was dissolved in double-distilled H2O and diluted appropriately to the concentration of 10 mM with 2 μL of lithium being added per well to yield a final well concentration of 1 mM. Stock concentrations of lithium were also made from this. L690330 was purchased from Sigma Chemicals, and was made up to a 1 mM stock concentration using H2O. From this stock the following concentrations were prepared using serial dilutions with water: 300 μM to 30 nM. These concentrations were used to produce a concentration-inhibition curve for the enzyme. Ebselen was purchased from BioFocus as a 10 mM stock in DMSO. […]

The next data set deals with inositol monophosphatase. Description: mouse ex vivo assay of IMPase activity in brain homogenate. Conditions: 5 mg/kg i.p., CD1 male mice, 1 hour (FIG. 5). Here is the method: To determine the bio-availability of ebselen, a mouse ex vivo assay was used. In this assay mice were given an intraperitoneal (i.p.) injection of 5 mg/kg ebselen solublized in betacyclodextrin, according to the following procedure. A stock solution of 0.5 M ebselen in DMSO and a stock of 40% 2-Hydroxy propyl-beta-cyclodextrin (HPBCD) were made. A 3.5 mM solution of ebselen (from 0.5 M stock) was made into 40% HPBCD and finally, to obtain the concentration of 350 μM ebselen, a 1 in 10 dilution was carried out. A control solution was made containing the same dilution of DMSO and HPBCD. The volume of drug/vehicle injected i.p. into the mouse was 1 ml (for the animals dosed with ebselen this is approximately 5 mg/kg assuming each mouse weighs about 20 g). CD1 male mice, weighing approximately 20 g were used. The animals were dosed for one hour with either drug or vehicle before being killed by cervical dislocation. The brains were quickly dissected out and frozen in liquid nitrogen. […]
The protein concentration of each brain homogenate was determined and a stock of 2.5 mg of protein was made from the homogenate and stored. […] The intensity of the green color formed was measured at 595 nm.

The subject of data set [2] is inositol levels in mice brains. Description: ex vivo inositol levels in mice brains by 1H NMR. Details: species or system mouse. The following applies: 1 hour after intraperitoneal injection, p<0.001 (FIG. 6). Here is the method: Similar conclusions can be reached from the results shown in FIG. 6, in which inositol levels in mice brains were measured ex vivo using ^1H NMR spectroscopy. The results were obtained from brains removed from mice 1 hour after intraperitoneal injection either with ebselen or with a control.

Data set [3] deals with mice. Description: rearing experiments with intracerebroventricular inositol. Conditions: ebselen 5 mg/kg i.p., after 60 minutes 5.5 μmol inositol intracerebroventricular (FIG. 10). The data set is classed as in vivo, mouse. As to the method: In these rearing experiments, mice were given an intraperitoneal injection of control or ebselen (5 mg/kg), and after 60 minutes were given an intracerebroventricular injection of control or 5.5 μmol inositol.

Data set [4] concerns mice. Description: amphetamine-induced hyperactivity (animal model of mania). The following applies: ebselen i.p., d-amphetamine 4 mg/kg after 60 minutes, 60 to 120 minutes, p<0.001 (FIGS. 7, 8). It counts as in vivo, mouse. Here is the method:
Activity and monitoring evaluation of mice was also studied. Mice were given an i.p. injection with saline (control) or ebselen (1, 5 or 10 mg/kg) and placed in a 35×35 cm perspex arena where their location was recorded by the Ethovision videotracking system (Noldus, Wageningen, The Netherlands). After 60 minutes, the mice were injected with d-amphetamine (4 mg/kg) or control. The Ethovision system follows the centre of the body of the mouse and records its position according to the location of this point. Data analysis was performed by Ethovision software, and distances moved within each 5 minute interval were calculated and plotted. The total distance moved was computed for the time frame from 60 to 120 minutes following the beginning of data acquisition. Amphetamine-induced hyperactivity is used as an animal model of mania, and is sensitive to mood-stabilising drugs such as lithium.

Data set [5] has as its system mice. Description: rearing experiments (infrared beam breaks, open-field test). The data set is classed as in vivo, mouse. Conditions: p=0.023 (FIG. 9). As to the method:
Rearing experiments were also carried out as follows. Mice were allowed to move freely within a caged equipped with infrared beam lines placed at two heights.
Mice could only break the upper beams by rearing.

The test system of another data set is rats. The following applies: cited from earlier work.

For the compound `CC(Oc1ccc(O)cc1)(P(=O)(O)O)P(=O)(O)O` [L690330], the figures for the concentration for half-maximal inhibition (IC50) (on bovine IMPase; in data set [1]) were about 300 nM and 1500 nM, respectively.

For `O=c1c2ccccc2[se]n1-c1ccccc1` [Ebselen, 2-phenyl-1,2-benzisoselenazol-3(2H)-one], the “amount of phosphate detected (IMPase activity in brain homogenate) compared to the control” value in the data set with inositol monophosphatase is listed as “significantly lower”. The “inositol levels in the brain versus control” value in data set [2] is “significantly lower”. In addition, in the data set with mice [3], the “effects of ebselen on suppressing rearing behaviour after inositol injection” value is given as “significantly reduced”. Moreover, the “level of amphetamine-induced hyperactivity” value in the data set with mice [4] was “reduced level of amphetamine-induced hyperactivity”. The concentration for half-maximal inhibition (IC50) in data set [1] was about 2000 nM. Moreover, the mode of inhibition entry in data set [1] (purified human IMPase, various ebselen and substrate concentrations (FIG. 3)) is listed as “non-competitive mode of inhibition”. In the data set with mice [5], the “number of beam breaks (rearing) during the open-field test” value is on record as “significantly reduced”. Moreover, in the data set with rats, the LD50 result is reported as “greater than 1000 mg/kg”.

With `O=c1c2ccccc2sn1-c1ccccc1` [2-phenyl-1,2-benzisothiazol-3(2H)-one], in data set [1] (30 μM compound (FIG. 4)), the “in vitro inhibition of IMPase” value is “inhibition of IMPase is also achieved”. Besides, the half-maximal inhibitory concentration (IC50) in data set [1] stood at 35000 nM.
